Activity calls are given as the source filed them. The rule behind the calls is not given here. Non-standard residues stand in square brackets, D forms with d. Residues, ends and D or L forms follow the SMILES beside them. Aib = CC(C)(N)C(=O)O

Series [1] can be described thus: Inhibition of amyloid beta-induced neurotoxicity in rat PC-12 cells at 2 uM by MTT assay relative to control. Type of series: functional. A general note: Tetrazolium assays rely on reduction of a dye to a coloured formazan, in cell work by metabolically active cells.
Series [2] is described as follows: Cytotoxicity against rat PC-12 cells assessed as cell viability at 50 uM by MTT assay relative to control. The format is toxicity, cell-based. Conditions: read-out: Activity.
Series [3] deals with Amyloid-beta precursor protein (Homo sapiens) (UniProt P05067). Briefly: Inhibition of amyloid beta (1 to 42) (unknown origin) self-aggregation assessed as beta-turn content at 1:5 amyloid-beta:compound concentration ratio incubated for 48 hrs by CD spectroscopy (reference value: 44.8 %). Set-up: scale not given: the % may be the effect or the level left.
Amyloid-beta precursor protein (Homo sapiens), sequence (P05067 whole entry): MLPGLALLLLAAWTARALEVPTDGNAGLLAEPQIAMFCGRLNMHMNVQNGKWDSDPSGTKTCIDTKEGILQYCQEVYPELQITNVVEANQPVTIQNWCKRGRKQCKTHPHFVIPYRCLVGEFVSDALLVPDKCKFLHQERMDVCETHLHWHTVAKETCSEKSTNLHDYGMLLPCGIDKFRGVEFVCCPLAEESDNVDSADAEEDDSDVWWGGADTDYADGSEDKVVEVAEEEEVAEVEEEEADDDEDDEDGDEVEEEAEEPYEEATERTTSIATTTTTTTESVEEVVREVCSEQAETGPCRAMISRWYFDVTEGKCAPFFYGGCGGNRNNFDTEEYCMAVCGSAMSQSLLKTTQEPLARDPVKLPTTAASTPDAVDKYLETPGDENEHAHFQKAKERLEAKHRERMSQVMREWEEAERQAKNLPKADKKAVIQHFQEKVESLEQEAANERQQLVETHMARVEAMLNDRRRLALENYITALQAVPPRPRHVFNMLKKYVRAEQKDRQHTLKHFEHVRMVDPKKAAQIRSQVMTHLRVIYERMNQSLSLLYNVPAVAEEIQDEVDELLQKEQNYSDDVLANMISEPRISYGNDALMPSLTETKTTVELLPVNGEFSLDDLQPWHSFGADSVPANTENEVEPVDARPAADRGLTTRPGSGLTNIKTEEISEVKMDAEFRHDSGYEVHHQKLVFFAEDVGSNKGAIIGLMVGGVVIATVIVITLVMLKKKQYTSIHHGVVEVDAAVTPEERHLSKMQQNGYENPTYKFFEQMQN
For series [4] the target is unchanged. Briefly: Inhibition of amyloid beta (1 to 42) (unknown origin) self-aggregation assessed as absence of fibrillar aggregates at 1:5 amyloid-beta:compound concentration ratio incubated for 72 hrs by scanning transmission electron microscopic analysis.
For series [5] the target is unchanged. Briefly: Inhibition of amyloid beta (1 to 40)/amyloid beta (1 to 42) (unknown origin) self-aggregation assessed as alpha-helix content at 1:5 amyloid-beta:compound concentration ratio incubated for 48 hrs by CD spectroscopy (reference value: 0 %). Set-up: scale not given: the % may be the effect or the level left.
For series [6] the target is unchanged. Briefly: Inhibition of amyloid beta (1 to 42 ) (unknown origin) self-aggregation assessed as appearance of peak at m/z 722.4940 at 1:5 amyloid-beta:compound concentration ratio incubated for 72 hrs by HRMS-ESI analysis.
Series [7] shares this target. Briefly: Inhibition of amyloid beta (1 to 42 ) (unknown origin) self-aggregation assessed as decrease in appearance of peak at m/z 685.4383 at 1:5 amyloid-beta:compound concentration ratio incubated for 72 hrs by HRMS-ESI analysis.
The target is the same in series [8]. Briefly: Inhibition of amyloid beta (1 to 40)/amyloid beta (1 to 42) (unknown origin) self-aggregation assessed as random coil content at 1:5 amyloid-beta:compound concentration ratio incubated for 48 hrs by CD spectroscopy (reference value: 0 %). Set-up: scale not given: the % may be the effect or the level left.
Series [9] is described as follows: Inhibition of amyloid beta-induced neurotoxicity in rat PC-12 cells at 10 uM by MTT assay relative to control. The format is functional.
In series [10] the target is Amyloid-beta precursor protein (Homo sapiens) (UniProt P05067). Briefly: Inhibition of amyloid beta (1 to 42) (unknown origin) self-aggregation assessed as absence of fibrillar aggregates at 1:5 amyloid-beta:compound concentration ratio measured immediately by high-resolution transmission electron microscopic analysis.
For series [11] the target is unchanged. Briefly: Inhibition of amyloid beta (1 to 40) (unknown origin) self-aggregation assessed as random coil content at 1:5 amyloid-beta:compound concentration ratio incubated for 48 hrs by CD spectroscopy (reference value: 40.3 %). Set-up: scale not given: the % may be the effect or the level left.
The target is the same in series [12]. Briefly: Inhibition of amyloid beta (1 to 40) (unknown origin) self-aggregation assessed as beta-turn content at 1:5 amyloid-beta:compound concentration ratio incubated for 48 hrs by CD spectroscopy (reference value: 0 %). Details: scale not given: the % may be the effect or the level left.
Series [13] has the same target. Briefly: Inhibition of amyloid beta (1 to 42) (unknown origin) self aggregation at 10 uM by ThT fluorescence assay relative to control.
For series [14] the target is unchanged. Briefly: Inhibition of amyloid beta (1 to 40) (unknown origin) self-aggregation assessed as alpha-helix content at 1:5 amyloid-beta:compound concentration ratio incubated for 48 hrs by CD spectroscopy (reference value: 0 %). Set-up: scale not given: the % may be the effect or the level left.
For series [15] the target is unchanged. Briefly: Inhibition of amyloid beta (1 to 42 ) (unknown origin) self-aggregation assessed as appearance of peak at m/z 1224.4239 at 1:5 amyloid-beta:compound concentration ratio incubated for 72 hrs by HRMS-ESI analysis.
A short description of series [16]: Cytotoxicity against rat PC-12 cells assessed as cell viability at 20 uM by MTT assay relative to control. Type of series: toxicity, cell-based. Conditions: read-out: Activity.
Series [17] deals with PC-12. Briefly: Protection against amyloid beta-induced neurotoxicity in rat PC-12 cells assessed as cell viability at 2 uM by MTT assay (reference value: 63.6 %). Type of series: functional. The following applies: read-out: Activity.
Series [18] concerns the target Amyloid-beta precursor protein (Homo sapiens) (UniProt P05067). Briefly: Inhibition of amyloid beta (1 to 42) (unknown origin) self-aggregation assessed as reduction in polydispersity index measured after 7 days by dynamic light scattering analysis. Conditions: time 7.0 day.
Series [19] has the same target. Briefly: Inhibition of amyloid beta (1 to 40)/amyloid beta (1 to 42) (unknown origin) self-aggregation assessed as beta-turn content at 1:5 amyloid-beta:compound concentration ratio incubated for 48 hrs by CD spectroscopy (reference value: 29.2 %). Set-up: scale not given: the % may be the effect or the level left.
The target is the same in series [20]. Briefly: Inhibition of amyloid beta (1 to 40)/amyloid beta (1 to 42) (unknown origin) self-aggregation assessed as beta-sheet content at 1:5 amyloid-beta:compound concentration ratio incubated for 48 hrs by CD spectroscopy (reference value: 70.8 %). Details: scale not given: the % may be the effect or the level left.
For series [21] the target is unchanged. Briefly: Inhibition of amyloid beta (1 to 42) (unknown origin) self-aggregation assessed as random coil content at 1:5 amyloid-beta:compound concentration ratio incubated for 48 hrs by CD spectroscopy (reference value: 0 %). Details: scale not given: the % may be the effect or the level left.
For series [22] the target is unchanged. Briefly: Inhibition of amyloid beta (1 to 42) (unknown origin) self-aggregation measured for 7 days by ThT fluorescence assay. Conditions: time 7.0 day.
For series [23], the system named is PC-12. Briefly: Protection against amyloid beta-induced neurotoxicity in rat PC-12 cells assessed as cell viability at 10 uM by MTT assay (reference value: 63.6 %). The following applies: read-out: Activity. Type of series: functional.
Series [24] is described as follows: Inhibition of amyloid beta-induced neurotoxicity in rat PC-12 cells at 4 uM by MTT assay relative to control. Type of series: functional.
For series [25], the target named is Amyloid-beta precursor protein (Homo sapiens) (UniProt P05067). Briefly: Inhibition of amyloid beta (1 to 42) (unknown origin) self aggregation at 2 to 10 uM by ThT fluorescence assay. Conditions: dose 2-10 µM.
Series [26] has the same target. Briefly: Inhibition of amyloid beta (1 to 42) (unknown origin) self-aggregation assessed as alpha-helix content at 1:5 amyloid-beta:compound concentration ratio incubated for 48 hrs by CD spectroscopy (reference value: 0 %). Set-up: scale not given: the % may be the effect or the level left.
Series [27] has the same target. Briefly: Inhibition of amyloid beta (1 to 42) (unknown origin) self-aggregation assessed as Z-average value measured after 7 days by dynamic light scattering analysis. The following applies: time 7.0 day.
For series [28] the target is unchanged. Briefly: Inhibition of amyloid beta (1 to 42) (unknown origin) self-aggregation assessed as absence of fibrillar aggregates at 1:5 amyloid-beta:compound concentration ratio incubated for 72 hrs by high-resolution transmission electron microscopic analysis.
Series [29] shares this target. Briefly: Inhibition of amyloid beta (1 to 42 ) (unknown origin) self aggregation in liposome-mimicked rat neuronal membrane assessed as fluorescence quenching at 1:5 amyloid-beta:compound concentration ratio incubated for 72 hrs by ANS fluorescence spectra. Conditions: Neuron. The format is cell membranes.
The subject of series [30] is PC-12. Briefly: Protection against amyloid beta-induced neurotoxicity in rat PC-12 cells assessed as cell viability at 4 uM by MTT assay (reference value: 63.6 %). The following applies: read-out: Activity. Type of series: functional.
Series [31] concerns the target Amyloid-beta precursor protein (Homo sapiens) (UniProt P05067). Briefly: Inhibition of amyloid beta (1 to 42) (unknown origin) self aggregation at 2 uM by ThT fluorescence assay relative to control.
Series [32] has the same target. Briefly: Inhibition of amyloid beta (1 to 42) (unknown origin) self-aggregation assessed as absence of fibrillar aggregates at 1:5 amyloid-beta:compound concentration ratio measured immediately by scanning transmission electron microscopic analysis.
For series [33] the target is unchanged. Briefly: Inhibition of amyloid beta (1 to 42) (unknown origin) self-aggregation assessed as beta-sheet content at 1:5 amyloid-beta:compound concentration ratio incubated for 48 hrs by CD spectroscopy (reference value: 55.2 %). Set-up: scale not given: the % may be the effect or the level left.
For series [34] the target is unchanged. Briefly: Inhibition of amyloid beta (1 to 40) (unknown origin) self-aggregation assessed as beta-sheet content at 1:5 amyloid-beta:compound concentration ratio incubated for 48 hrs by CD spectroscopy (reference value: 59.7 %). Details: scale not given: the % may be the effect or the level left.
For series [35] the target is unchanged. Briefly: Inhibition of amyloid beta (1 to 42 ) (unknown origin) self-aggregation assessed as appearance of peak at m/z 507.3270 at 1:5 amyloid-beta:compound concentration ratio incubated for 72 hrs by HRMS-ESI analysis.
A further series concerns SH-SY5Y. Briefly: Inhibition of amyloid beta (1 to 42)-induced toxicity in human SH-SY5Y cells assessed as cell survival at 50 uM incubated for 24 hrs by MTT assay relative to control. The format is functional. Conditions: read-out: Survival.

One may read the inhibition as the change of the read-out against control, counted positive when it falls. Take `CC[C@H](C)[C@H](NC(=O)[C@H](C)N)C(=O)NC(C)(C)C(=O)N[C@H](C(N)=O)C(C)C` (H-AI[Aib]V-NH2): the inhibition at 2 µM in series [1] was found to be 7%. Also, the viability at 50 µM in series [2] worked out at 97.9%. Besides, the Activity in series [3] turned out to be 49%; in series [5] it was 23.9%; in series [8] it was 25.7%; in [11], 38.1%; in [12], 40.3%; in series [14], 21.6%. Besides, the Activity in [19] stood at 48.4%; in [20] it was 1.9%; in [21], 36.6%; in series [26], 14.4%; in series [33], 0%; in series [34] it was 0%. Further, the inhibition entry in series [4], in series [10], in series [18], in series [22], in series [25] and in series [27] was “Active” throughout. Also, the inhibition entry in series [28] and in series [32] was “Active” throughout. Also, the inhibition entry was “Active; Peaks Corresponds To [Amyloidbeta (1 To 42) + M + Na]7+” in [6]; “Active; Peak Corresponds To Aggregates” in [7]; 80.8% in series [13]; “Active; Peaks Corresponds To [(Amyloidbeta (21 To 42) + M)4+ ]” in [15]; “Active; Blue Shift Of 2 To 3 Nm And Isoemissive Point At ~427 Nm Observed” in [29]; 62.7% in series [31]. Besides, in [35], the inhibition result was “Active; Peaks Corresponds To [Amyloidbeta (1 To 42) + M]4+”. This molecule yielded an inhibition at 10 µM in series [9] of 73%. The viability at 20 µM in [16] turned out to be 98.5%. The viability at 2 µM in the series on PC-12 [17] stood at 66.1%. In the series with PC-12 [23], the viability at 10 µM turned out to be 90.2%. In series [24], this molecule displayed an inhibition at 4 µM of 53%. Further, in the series on PC-12 [30], the viability at 4 µM was determined as 82.8%.

Consider H-RIIGL-NH2, for which the viability at 50 µM in the series on SH-SY5Y was determined as 84%.

(Values after ChEMBL document CHEMBL6083190, “Synthesis and mechanistic study of Aβ42 C-terminus domain derived tetrapeptides that inhibit Alzheimer's Aβ-aggregation-induced neurotoxicity” (Bioorg Med Chem Lett, 2024).)
